Assay results taken from US20120252721A1 (priority 2011, published 2012).
pEC50: −log10 of the molar value.

How the values were obtained:
[1] = system: HCV Con1 subgenomic replicon (GS4.1 cells); assay: HCV replicon assay (NS5A ELISA, 72 hrs); assay type: cell-based; settings: Hepatitis C virus
How it was run: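 GS4.1 cells (Huh-7 carrying the Con1 subgenomic replicon) were seeded at 7.5×10^3 cells/well and dosed 3 h later with ten 2-fold dilutions (top 75 μM) or a single 15 μM in 0.5% DMSO, then held 72 h at 37 °C. NS5A was quantified by cell ELISA (mAb A-236, OPD, A492), and EC50s came from four-parameter sigmoidal fits.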

in vitro = assay type: cell-based, human; settings: human; Table 1B, cellular viability
How it was run: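 Cytotoxicity counter-screen in which the H1a-luc or Zluc cells were compound-treated and viability was read with the CellTiter 96 AQueous One (MTS) reagent by absorbance at 490 nm. CC50 values came from curve fitting.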

[2] = system: HCV genotype 1b replicon, NS5B S282T; assay: Luciferase replicon transient transfection assay, genotype 1b NS5B S282T; assay type: cell-based, hepatitis C virus
Protocol: The luciferase replicon transient transfection assay measures the ability of a test compound to inhibit the replication of a transiently-transfected HCV luciferase-bearing wild-type or mutant replicon in cured human hepatoma cells (Huh7.5). The inhibition of HCV replication was measured by quantification of luciferase protein expression. This assay has been validated using a panel of genotype 1a and 1b replicons bearing mutations known to be associated with resistance to BMS-790052. Briefly, subconfluent Huh7.5 cells were electroporated with 10 μg of wild-type or mutant luciferase-bearing HCV replicon RNA. The cells were then seeded in 96-well opaque white plates at 3×10^4 cells/well in 150 μL/well and incubated for 4 hrs at 37° C./5% CO2. […] The plates were agitated on a rotating platform at room temperature for 3 min and read in a Victor^3V microplate reader (Perkin-Elmer) using a 700 nm cut-off filter with a 1 sec read time. EC50 values were calculated from dose response curves from the resulting best-fit equations determined by Microsoft Excel and XLfit 4.1 software.
To determine the replication capacity of each mutant relative to the wild-type parental replicon, transfected cells were plated on two plates and were not treated with compound. Luciferase activity was measured at time points of 4 hrs and 4 days after plating for each replicon. […]

[3] = system: ZS11-luc replicon, NS3-R155K; assay: Luciferase replicon transient transfection assay, NS3-R155K; assay type: cell-based, hepatitis C virus; settings: for pEC50: Hepatitis C virus
Protocol: The luciferase replicon transient transfection assay measures the ability of a test compound to inhibit the replication of a transiently-transfected HCV luciferase-bearing wild-type or mutant replicon in cured human hepatoma cells (Huh7.5). The inhibition of HCV replication was measured by quantification of luciferase protein expression. This assay has been validated using a panel of genotype 1a and 1b replicons bearing mutations known to be associated with resistance to BMS-790052. Briefly, subconfluent Huh7.5 cells were electroporated with 10 μg of wild-type or mutant luciferase-bearing HCV replicon RNA. The cells were then seeded in 96-well opaque white plates at 3×10^4 cells/well in 150 μL/well and incubated for 4 hrs at 37° C./5% CO2. Ten 1:5 serial dilutions of each test compound were made in media (DMEM containing glucose, L-glutamine and sodium pyruvate, 10% fetal bovine serum, 100 IU/mL penicillin, 100 μg/mL streptomycin, 2 mM GlutaMAX, and 1×MEM non-essential amino acids (Mediatech, Inc. and Invitrogen Corp.)) at concentrations that were 4× higher than the final concentrations to be tested and 50 μL/well was added to the transfected cells. Untreated, mock-transfected cells served as a negative control of luciferase expression. The plates were incubated at 37° C./5% CO2 for 4 days whereupon the media was removed and 50 μL of ONE-glo luciferase substrate (Promega) was added to each well. The plates were agitated on a rotating platform at room temperature for 3 min and read in a Victor^3V microplate reader (Perkin-Elmer) using a 700 nm cut-off filter with a 1 sec read time. EC50 values were calculated from dose response curves from the resulting best-fit equations determined by Microsoft Excel and XLfit 4.1 software.
To determine the replication capacity of each mutant relative to the wild-type parental replicon, transfected cells were plated on two plates and were not treated with compound. Luciferase activity was measured at time points of 4 hrs and 4 days after plating for each replicon. Replication capacity was calculated by dividing the day 4 CPS by the 4 hour CPS for each replicon and determining the percentage present for each mutant replicon relative to wild-type replicon values. The NS3, NS4B, and NS5B mutants were prepared and tested according to the methods described herein.

Row | SMILES | pEC50 [1] | CC50 (in vitro) | pEC50 ([2]; Hepatitis C virus, genotype 1b, NS5B mutation S282T (confers resistance to 2′-C-Methylnucleoside)) | Ratio ([2]; {}) | pEC50 [3] | Ratio [3]
1 | COC(=O)N[C@H](C(=O)N1CCC[C@H]1c1ncc(-c2ccc(-c3csc4c(-c5cnc([C@@H]6CCCN6C(=O)[C@@H](NC(=O)OC)C(C)C)[nH]5)csc34)cc2)[nH]1)C(C)C [Compound A15, [(S)-1-((S)-2-{4-[4-(6-{2-[(S)-1-((S)-2-methoxycarbonylamino-3-methyl-butyryl)-pyrrolidin-2-yl]-3H-imidazol-4-yl}-thieno[3,2-b]thiophen-3-yl)-phenyl]-1H-imidazol-2-yl}-pyrrolidine-1-carbonyl)-2-methyl-propyl]-carbamic acid methyl ester] | > 9.00 | 10000 to 75000 nM | – | – | – | –
2 | COC(=O)N[C@H](C(=O)N1CCC[C@H]1c1ncc(-c2ccc(-c3csc4c(-c5cnc([C@@H]6CCCN6C(=O)[C@H](NC(=O)OC(C)(C)C)c6ccccc6)[nH]5)csc34)cc2)[nH]1)C(C)C [Compound A111, [(S)-1-((S)-2-{4-[4-(6-{(S)-2-[1-((R)-2-tert-butoxycarbonylamino-2-phenyl-acetyl)-pyrrolidin-2-yl]-3H-imidazol-4-yl}-thieno[3,2-b]thiophen-3-yl)-phenyl]-1H-imidazol-2-yl}-pyrrolidine-1-carbonyl)-2-methyl-propyl]-carbamic acid methyl ester] | > 9.00 | – | – | – | – | –
3 | COC(=O)N[C@H](C(=O)N1CCC[C@H]1c1nc2cc(-c3csc4c(-c5ccc(-c6cnc([C@@H]7CCCN7C(=O)[C@H](NC(=O)OC)c7ccccc7)[nH]6)cc5)csc34)ccc2[nH]1)C(C)C [Compound A169, [(S)-1-((S)-2-{6-[6-(4-{(S)-2-[1-((R)-2-methoxycarbonylamino-2-phenyl-acetyl)-pyrrolidin-2-yl]-3H-imidazol-4-yl}-phenyl)-thieno[3,2-b]thiophen-3-yl]-1H-benzoimidazol-2-yl}-pyrrolidine-1-carbonyl)-2-methyl-propyl]-carbamic acid methyl ester] | – | – | 11.85 | 0.83 | 11.77 | 1.01
4 | COC(=O)N[C@H](C(=O)N1CCC[C@H]1c1ncc(-c2ccc(-c3csc4c(-c5ccc6[nH]c([C@@H]7CCCN7C(=O)[C@H](NC(=O)OC)c7ccccc7)nc6c5)csc34)cc2)[nH]1)C(C)C [Compound A172, [(S)-1-((S)-2-{5-[4-(6-{(S)-2-[1-((R)-2-Methoxycarbonylamino-2-phenyl-acetyl)-pyrrolidin-2-yl]-3H-benzoimidazol-5-yl}-thieno[3,2-b]thiophen-3-yl)-phenyl]-1H-imidazol-2-yl}-pyrrolidine-1-carbonyl)-2-methyl-propyl]-carbamic acid methyl ester] | – | – | – | – | 11.64 | 1.02
